{"source": "paper PMC7747594", "about": "“Protease-activated receptor-2 ligands reveal orthosteric and allosteric mechanisms of receptor inhibition” (Communications Biology, 2020)", "key": {"mast cells": {"system": "mast cells", "assay": "Mast cell staining (toluidine blue), activated/degranulated mast cells in rat paw", "assay_type": "in vivo", "design": "Active mast cells (%): concentration or dose not given beside the values", "conditions": "for Active mast cells (%): 2f-induced rat paw oedema, individual animals (Figure 5b); for percentage activated/degranulated mast cells in paw induced by 2f-LIGRLO-NH2: pre-treatment, 30 min", "experimental": "Tissues were then embedded with Optimal Cutting Temperature compound (OCT, Sakura Finetek, USA) and stored at −80 °C before making cryo-sections for histological analysis. Frozen sections (5 µm) were made using a cryostat-microtome (Leica Biosystems, Germany). […] Slides were then dehydrated and mounted in DPX mountant (Sigma-Aldrich, USA). For immunohistochemistry, slides were briefly rinsed with PBS to remove OCT. Except for tryptase staining, antigen retrieval was performed by incubating slides in citrate buffer (0.01 M, pH 6) at 95 °C for 20 min. They were then cooled down briefly and incubated with blocking medium (PBS, 0.1% Triton X-100, 10% horse serum) for 1 h at room temperature in a humidity chamber. Samples were incubated with primary antibody medium (PBS, 0.1% Triton X-100, 4% horse serum; 1:100 primary antibody including – histamine, neutrophil elastase or ED1 antibodies) overnight at 4 °C. The next day, samples were washed with PBS and incubated with the secondary antibody medium (PBS, 0.1% Triton X-100, 4% horse serum, detection antibody 1:200) for 2 h at room temperature. For tryptase staining, slides were incubated with primary antibody medium (as above with tryptase antibody at 1:100 dilution) for 4 h, then the secondary antibody medium for 2 h. Finally, slides were dried, counterstained with DAPI (Invitrogen, Australia), and sealed with clear nail polish. Primary antibodies for tryptase (AA1, ab2378, Abcam, Australia), histamine (H7403, Sigma-Aldrich, USA), neutrophil elastase (ab21595, Abcam, Australia) and ED1 (ab31630, Abcam, Australia) were purchased from commercial sources. Secondary detection antibody was purchased from Abcam, Australia."}, "hPAR2": {"molecular_target": "T1, hPAR2 (Homo sapiens, UniProt P55085)", "T1 sequence (P55085 26-397)": "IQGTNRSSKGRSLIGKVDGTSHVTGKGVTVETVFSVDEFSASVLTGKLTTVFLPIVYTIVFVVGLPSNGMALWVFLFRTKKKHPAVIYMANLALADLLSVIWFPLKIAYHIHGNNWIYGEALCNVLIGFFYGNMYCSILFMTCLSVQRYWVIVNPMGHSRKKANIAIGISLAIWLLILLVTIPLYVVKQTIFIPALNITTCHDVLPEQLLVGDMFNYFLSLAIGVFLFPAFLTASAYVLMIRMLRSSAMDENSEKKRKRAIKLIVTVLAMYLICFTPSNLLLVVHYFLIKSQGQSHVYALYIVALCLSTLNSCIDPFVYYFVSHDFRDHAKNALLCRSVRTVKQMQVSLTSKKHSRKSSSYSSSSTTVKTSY", "assay": "Schild and allosteric model analysis of Ca^2+ mobilisation in CHO-hPAR2 cells (2f-LIGRL-NH2 or trypsin)", "assay_type": "cell-based", "conditions": "for linear Schild regression slope: Figure R1; for logα / logβ: operational model of allosterism", "experimental": "Cells were loaded with Fluo-8 NW calcium dye (AAT Bioquest) for 30 min at 37 °C before compounds in Hank’s balanced salt solution (HBSS, ThermoFisher Scientific) with 20 mM HEPES (ThermoFisher Scientific), 0.1% bovine serum albumin (BSA, Sigma) and 0.5% DMSO were added and simultaneously evaluated for changes in intracellular [Ca^2+] using FLIPR TETRA (Molecular Devices) to detect agonism. For each concentration, the difference between the maximum peak Ca^2+ response and baseline response is reported. […] Antagonism experiments were also carried out on 1321N1-PAR2[WT], 1321N1-PAR2[F154A], and 1321N1-PAR2[G157C] as described. Experiments with trypsin in 1321N1-hPAR2 cells were performed in the presence of 1 µM Vorapaxar (Chemtronica) to remove any interference of PAR1 activity. […] Antagonism experiments for CHO-hPAR2 and HT-29 cells were performed in 96-well plates at 30,000 cells/well. Cells were loaded with Fluo-3 AM calcium dye (Sigma-Aldrich) for 60 min at 37 °C in HBSS with 1% FBS, 0.2% pluronic acid, 20 mM HEPES and 2.5 mM probenecid prior to the addition of antagonist. The antagonist was pre-incubated for 60 min at 37 °C followed by the addition of bovine trypsin (30 nM) at EC80. Intracellular [Ca^2+] flux was measured using FLIPR TETRA (Molecular Devices) and the difference between the maximum peak Ca^2+ response and baseline response is reported.\nBinding data were analysed using the One site – Fit Ki model in GraphPad Prism 8 (GraphPad Software) to determine binding affinity. Pharmacology in vitro potency data was analysed with a 4-parameter logistic fit using the equation y = Bottom + (Top − Bottom)/[…] where y is the response, x is the 10-logarithm of the drug concentration, Bottom is no response and Top is full response in GraphPad Prism 8 or Genedata Screener (Genedata). pEC50 and pIC50 data are presented as mean ± standard error of the mean (s.e.m.) derived from the number of independent experiments stated. Schild slope analysis was calculated using Graphpad Prism 8 Gaddum/Schild EC50 global fitting (shared model parameters between all data sets) competitive model. […] Schild slope quantifies the shifts in agonist response in the presence of antagonist, a Schild slope of 1 indicates the antagonist is competitive and extra-sum-of-squares F-test (p < 0.05) was used to compare the calculated Schild slope against a hypothetical Schild slope of 1. […] The relative activity was calculated using (EmaxEC50’)/(Emax’EC50) with the Hill slope help constant at 1. EC50’ and Emax’ denote the EC50 and Emax in the absence of allosteric modulator, while EC50 and Emax denote those measured in the presence of allosteric modulator. When the Hill slope = 1, the relative activity plot approaches an asymptote corresponding to the estimate of the γ value."}, "[1]": {"molecular_target": "T2, beta-tryptase (uniprot P20231) (Homo sapiens, UniProt P20231)", "T2 construct": "made in house; host or cells: Pichia pastoris", "T2 sequence (P20231 31-275)": "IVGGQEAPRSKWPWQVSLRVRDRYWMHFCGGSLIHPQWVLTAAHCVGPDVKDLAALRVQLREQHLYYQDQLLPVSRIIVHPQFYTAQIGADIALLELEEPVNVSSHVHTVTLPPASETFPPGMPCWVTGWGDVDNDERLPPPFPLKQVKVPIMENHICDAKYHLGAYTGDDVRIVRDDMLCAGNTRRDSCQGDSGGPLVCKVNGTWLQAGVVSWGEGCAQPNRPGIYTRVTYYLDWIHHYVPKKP", "assay": "Tryptase enzyme activity assay", "assay_type": "biochemical", "conditions": "10 µM, n=1", "experimental": "Tryptase Enzyme Activity Assay. The tryptase assay was carried out using beta-tryptase (uniprot P20231) produced in Pichia pastoris and using Tos-Gly-Pro-Lys-pNA as substrate (25 mM stock in ethanol) in 100 mM Tris pH 8.0, 100 mM NaCl, 10% glycerol, 0.5 mg mL-1 BSA, 0.1% DDM. Substrate (250 µM) was pre-incubated with test compound (10 µM) in assay buffer (200 ul) in clear bottom 96 well Greiner plates at room temperature. The re action was started by the addition of tryptase to a final concentration of 4.7 nM. Co nversion was recorded in a plate reader by monitoring the increase of absorption at λ = 405 nm over time. Activity was determined by linear fit of initial rate."}, "[2]": {"conditions": "against 2f-LIGRL-NH2, Gaddum/Schild EC50 global fitting, CHO-hPAR2 cells"}, "[3]": {"conditions": "against trypsin, Gaddum/Schild EC50 global fitting, CHO-hPAR2 cells"}, "[4]": {"conditions": "2f-LIGRL-NH2, Ca^2+ mobilisation"}}, "note": "Values joined by “and” are separate entries in the source; they are usually repeats but may differ in a detail not shown here. Identical values can stand only once."}
{"smiles": "C[C@@H](C1CCCCC1)n1c(-c2cc3c(cc2Br)OCO3)nc2cc(C(=O)Nc3ccc(C#N)cc3)ccc21", "note": "[AZ3451]", "values": [{"measurement": "Active mast cells (%)", "setting": "mast cells", "result": "40% and 57.0833% and 59.9284% and 37.5635% and 18.0263%"}, {"measurement": "percentage activated/degranulated mast cells in paw induced by 2f-LIGRLO-NH2", "setting": "mast cells", "result": "inhibited"}, {"measurement": "γ value estimated from relative activity", "setting": "hPAR2; 2f-LIGRL-NH2", "result": 0.002}, {"measurement": "linear Schild regression slope", "setting": "hPAR2; 2f-LIGRL-NH2, CHO-hPAR2 cells", "result": 0.4}, {"measurement": "Schild slope", "setting": "hPAR2; [2]", "result": 0.4}, {"measurement": "Schild slope", "setting": "hPAR2; [3]", "result": 0.3}, {"measurement": "logα", "setting": "hPAR2; [4]", "result": "−1.98 ± 0.11"}, {"measurement": "logβ", "setting": "hPAR2; [4]", "result": "−0.28 ± 0.07"}, {"measurement": "logα", "setting": "hPAR2; trypsin, Ca^2+ mobilisation", "result": "−1.19 ± 0.07"}, {"measurement": "logβ", "setting": "hPAR2; trypsin, Ca^2+ mobilisation", "result": "−0.66 ± 0.08"}, {"measurement": "γ value estimated from relative activity", "setting": "hPAR2; trypsin", "result": 0.09}, {"measurement": "linear Schild regression slope", "setting": "hPAR2; trypsin, CHO-hPAR2 cells", "result": 0.2}, {"measurement": "inhibition of tryptase activity", "setting": "[1]", "result": "no"}]}
{"smiles": "CCCc1cc(F)ccc1C(O)c1ncc[nH]1", "note": "(centres unmarked) [AZ8838]", "values": [{"measurement": "Active mast cells (%)", "setting": "mast cells", "result": "57.5% and 42.6997% and 37.7451% and 42.5373% and 50%"}, {"measurement": "percentage activated/degranulated mast cells in paw induced by 2f-LIGRLO-NH2", "setting": "mast cells", "result": "inhibited"}, {"measurement": "linear Schild regression slope", "setting": "hPAR2; 2f-LIGRL-NH2, CHO-hPAR2 cells", "result": 1.0}, {"measurement": "Schild slope", "setting": "hPAR2; [2]", "result": 1.1}, {"measurement": "Schild slope", "setting": "hPAR2; [3]", "result": 0.9}, {"measurement": "linear Schild regression slope", "setting": "hPAR2; trypsin, CHO-hPAR2 cells", "result": 0.8}, {"measurement": "inhibition of tryptase activity", "setting": "[1]", "result": "no"}]}
